Legend:
[1] = Microsomal half-life / microsomal clearance, rat liver microsomes; assay type: in vitro ADME; settings: 0.5 μM test substance, 0.25 mg protein/ml, pH 7.4, 37° C.
Protocol: (§1) The metabolic stability of the compounds of the invention was determined in the following assay. The test substances were incubated in a concentration of 0.5 μM as follows: 0.5 μM test substance are preincubated together with liver microsomes from different species (from rat, human or other species) (0.25 mg of microsomal protein/ml) in 0.05 M potassium phosphate buffer of pH 7.4 in microtiter plates at 37° C. for 5 min. The reaction is started by adding NADPH (1 mg/mL). After 0, 5, 10, 15, 20 and 30 min, 50 μl aliquots are removed, and the reaction is immediately stopped and cooled with the same volume of acetonitrile. The samples are frozen until analyzed. The remaining concentration of undegraded test substance is determined by MSMS. The half-life (T½) is determined from the gradient of the signal of test substance/unit time plot, it being possible to calculate the half-life of the test substance, assuming first order kinetics, from the decrease in the concentration of the compound with time. The microsomal clearance (mCl) is calculated from mCl=ln 2/T½/(content of microsomal protein in mg/ml)×1000 [ml/min/mg] (modified from references: Di, The Society for Bimolecular Screening, 2003, 453-462; Obach, D M D, 1999 vol 27. N 11, 1350-1359).

[2] = Microsomal half-life / microsomal clearance, human liver microsomes; assay type: in vitro ADME; settings: 0.5 μM test substance, 0.25 mg protein/ml, pH 7.4, 37° C.
Protocol: as §1

rats [3] = settings: cited from earlier work
rats [4] = settings: cited from earlier work; remark: listed apart in the source
rats [5] = settings: cited from earlier work; remark: listed apart in the source

Row | Compound | Rat mCl [1] | Human mCl [2] | hyperactivity induced by PCP (rats [3]) | effect on the cataleptic effect of haloperidol (rats [4]; with D2 receptor antagonist haloperidol) | catalepsy on its own (rats [4]; without haloperidol) | reduction of amphetamine-induced hyperactivity (rats [5])
1 | CCCc1nc(C)c2c(C)nc3sc(OC)nc3n12 [Example 5, 2-Methoxy-5,6-dimethyl-8-propyl-3-thia-1,4,7,8a-tetraaza-as-indacene] | ∘ (∘: >220 μl min^−1 mg^−1) | ∘ (∘: >220 μl min^−1 mg^−1) | – | – | – | –
2 | COc1ccc(Cc2nccc3cc(OC)c(OC)cc23)cc1OC [Papaverine, papaverine] | – | – | reduced hyperactivity | potentiated the cataleptic effect | did not cause catalepsy | insignificant
3 | CCCc1nc(C)c2c(C)nc3sc(C)nc3n12 [Example 3, 2,5,6-Trimethyl-8-propyl-3-thia-1,4,7,8a-tetraaza-as-indacene] | ∘ (∘: >220 μl min^−1 mg^−1) | + (+: 100-220 μl min^−1 mg^−1) | – | – | – | –
4 | CCCc1nc(C)c2c(C)nc3scnc3n12 [Example 1, 5,6-Dimethyl-8-propyl-3-thia-1,4,7,8a-tetraaza-as-indacene] | + (+: 100-220 μl min^−1 mg^−1) | ++ (++: <100 μl min^−1 mg^−1) | – | – | – | –

Now from value to compound, other results behind:

Row | Rat mCl [1] | Human mCl [2] | Compound | hyperactivity induced by PCP (rats [3]) | effect on the cataleptic effect of haloperidol (rats [4]; with D2 receptor antagonist haloperidol) | catalepsy on its own (rats [4]; without haloperidol) | reduction of amphetamine-induced hyperactivity (rats [5])
5 | ++ (++: <100 μl min^−1 mg^−1) | ++ (++: <100 μl min^−1 mg^−1) | Cc1nc(-c2cccc(C(N)=O)c2)n2c1c(C)nc1scnc12 [Example 8, 3-(5,6-Dimethyl-3-thia-1,4,7,8a-tetraaza-as-indacen-8-yl)-benzamide] | – | – | – | –
6 | ++ (++: <100 μl min^−1 mg^−1) | ++ (++: <100 μl min^−1 mg^−1) | Cc1ncccc1-c1nc(C)c2c(C)nc3scnc3n12 [Example 9, 5,6-Dimethyl-8-(2-methyl-pyridin-3-yl)-3-thia-1,4,7,8a-tetraaza-as-indacene] | – | – | – | –
7 | + (+: 100-220 μl min^−1 mg^−1) | + (+: 100-220 μl min^−1 mg^−1) | Cc1ccc(-c2nc(C)c3c(C)nc4scnc4n23)cn1 [Example 11, 5,6-Dimethyl-8-(6-methyl-pyridin-3-yl)-3-thia-1,4,7,8a-tetraaza-as-indacene] | – | – | – | –

— patent publication US9388180B2, “Inhibitor compounds of phosphodiesterase type 10A” (priority 2012, dated 2016)
